# Laboratory results published in patent publication US8933230B2, “Phosphorus-containing group-substituted quinoline, its preparation process, medical composition containing the compounds and application” (priority 2011, dated 2015).
# Key:
# Assay in all cases: KinomeScan kinase panel
# Assay type in all cases: binding
# AURKA = molecular target: T1, AURKA (Homo sapiens, UniProt O14965)
# T1 construct: purchased DiscoveRx Corporation (KinomeScan)
# Summary of the method: (§1)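 Compound is added at 1000 nM to each assay of the KinomeScan 442-kinase panel. Inhibitory effect is then recorded per kinase.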
# BMPR1A = molecular target: T2, BMPR1A (Homo sapiens, UniProt P36894)
# T2 construct: purchased DiscoveRx Corporation (KinomeScan)
# T2 sequence (P36894 24-532): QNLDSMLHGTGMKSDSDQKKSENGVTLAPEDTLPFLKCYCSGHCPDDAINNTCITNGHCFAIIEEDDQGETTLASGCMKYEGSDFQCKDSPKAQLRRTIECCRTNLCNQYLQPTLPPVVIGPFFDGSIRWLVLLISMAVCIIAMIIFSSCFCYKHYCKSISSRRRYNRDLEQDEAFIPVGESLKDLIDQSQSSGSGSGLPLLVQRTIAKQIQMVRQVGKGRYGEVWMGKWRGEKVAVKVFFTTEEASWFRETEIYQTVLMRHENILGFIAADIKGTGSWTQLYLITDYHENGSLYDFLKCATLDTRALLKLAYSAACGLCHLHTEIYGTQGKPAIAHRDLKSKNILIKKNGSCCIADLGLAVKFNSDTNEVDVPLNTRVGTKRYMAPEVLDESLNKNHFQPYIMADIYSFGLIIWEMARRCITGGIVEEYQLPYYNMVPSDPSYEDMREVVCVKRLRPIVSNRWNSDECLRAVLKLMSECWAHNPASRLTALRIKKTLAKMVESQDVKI
# Summary of the method: as §1
# BRAF = molecular target: T3, BRAF (Homo sapiens, UniProt P15056)
# T3 construct: purchased DiscoveRx Corporation (KinomeScan)
# Summary of the method: as §1
# CHEK2 = molecular target: T4, CHEK2 (Homo sapiens, UniProt O96017)
# T4 construct: purchased DiscoveRx Corporation (KinomeScan)
# T4 sequence (O96017 whole entry): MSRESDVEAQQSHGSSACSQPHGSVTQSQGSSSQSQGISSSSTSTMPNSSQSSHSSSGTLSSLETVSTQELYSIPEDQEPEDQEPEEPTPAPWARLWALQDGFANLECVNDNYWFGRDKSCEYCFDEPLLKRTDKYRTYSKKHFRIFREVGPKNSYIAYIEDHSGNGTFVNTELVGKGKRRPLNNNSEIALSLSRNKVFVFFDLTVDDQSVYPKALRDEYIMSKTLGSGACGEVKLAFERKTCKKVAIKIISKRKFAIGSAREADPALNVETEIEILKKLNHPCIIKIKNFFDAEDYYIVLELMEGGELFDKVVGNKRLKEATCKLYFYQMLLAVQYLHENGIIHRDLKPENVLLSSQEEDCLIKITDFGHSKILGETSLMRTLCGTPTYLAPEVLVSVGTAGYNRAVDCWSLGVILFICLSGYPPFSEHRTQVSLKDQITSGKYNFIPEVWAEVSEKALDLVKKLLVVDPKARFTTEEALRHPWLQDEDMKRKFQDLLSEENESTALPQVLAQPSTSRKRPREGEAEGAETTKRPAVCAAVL
# Summary of the method: as §1
# DLK = molecular target: T5, DLK (Homo sapiens, UniProt Q12852)
# T5 construct: purchased DiscoveRx Corporation (KinomeScan)
# Summary of the method: as §1
# EGFR = molecular target: T6, EGFR (Homo sapiens, UniProt P00533)
# T6 construct: purchased DiscoveRx Corporation (KinomeScan)
# Summary of the method: as §1
# EGFR(L747-T751del,Sins) = molecular target: T7, EGFR(L747-T751del,Sins) (Homo sapiens, UniProt P00533, DEL747-750/T751S)
# T7 construct: purchased DiscoveRx Corporation (KinomeScan)
# Summary of the method: as §1
# EGFR(L858R,T790M) = molecular target: T8, EGFR(L858R,T790M) (Homo sapiens, UniProt P00533, L858R/T790M)
# T8 construct: purchased DiscoveRx Corporation (KinomeScan)
# Summary of the method: as §1
# EIF2AK1 = molecular target: T9, EIF2AK1 (Homo sapiens, UniProt Q9BQI3)
# T9 construct: purchased DiscoveRx Corporation (KinomeScan)
# Summary of the method: as §1
# EPHA4 = molecular target: T10, EPHA4 (Homo sapiens, UniProt P54764)
# T10 construct: purchased DiscoveRx Corporation (KinomeScan)
# Summary of the method: as §1
# EPHB3 = molecular target: T11, EPHB3 (Homo sapiens, UniProt P54753)
# T11 construct: purchased DiscoveRx Corporation (KinomeScan)
# Summary of the method: as §1
# EPHB4 = molecular target: T12, EPHB4 (Homo sapiens, UniProt P54760)
# T12 construct: purchased DiscoveRx Corporation (KinomeScan)
# Summary of the method: as §1
# FGFR1 = molecular target: T13, FGFR1 (Homo sapiens, UniProt P11362)
# T13 construct: purchased DiscoveRx Corporation (KinomeScan)
# Summary of the method: as §1
# HIPK4 = molecular target: T14, HIPK4 (Homo sapiens, UniProt Q8NE63)
# T14 construct: purchased DiscoveRx Corporation (KinomeScan)
# Summary of the method: as §1
# IKK-epsilon = molecular target: T15, IKK-epsilon (Homo sapiens, UniProt Q14164)
# T15 construct: purchased DiscoveRx Corporation (KinomeScan)
# T15 sequence (Q14164 whole entry): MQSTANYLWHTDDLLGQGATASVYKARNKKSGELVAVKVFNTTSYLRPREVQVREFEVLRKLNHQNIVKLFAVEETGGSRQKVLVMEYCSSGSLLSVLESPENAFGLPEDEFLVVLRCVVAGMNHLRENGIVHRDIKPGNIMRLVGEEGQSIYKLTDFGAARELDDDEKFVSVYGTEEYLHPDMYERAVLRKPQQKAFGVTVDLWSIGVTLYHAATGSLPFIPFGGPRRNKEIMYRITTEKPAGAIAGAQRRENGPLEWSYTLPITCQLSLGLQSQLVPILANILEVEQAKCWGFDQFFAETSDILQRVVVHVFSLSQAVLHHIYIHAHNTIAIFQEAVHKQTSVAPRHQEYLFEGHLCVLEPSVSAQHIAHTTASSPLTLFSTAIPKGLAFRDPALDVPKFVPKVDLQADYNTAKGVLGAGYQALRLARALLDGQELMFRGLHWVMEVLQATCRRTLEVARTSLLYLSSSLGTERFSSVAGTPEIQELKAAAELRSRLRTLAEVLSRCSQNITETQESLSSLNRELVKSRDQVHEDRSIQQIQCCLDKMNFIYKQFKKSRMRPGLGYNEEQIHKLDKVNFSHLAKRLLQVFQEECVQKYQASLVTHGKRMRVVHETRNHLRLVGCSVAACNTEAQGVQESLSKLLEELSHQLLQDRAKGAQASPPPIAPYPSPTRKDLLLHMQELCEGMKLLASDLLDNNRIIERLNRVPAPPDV
# Summary of the method: as §1
# ITK = molecular target: T16, ITK (Homo sapiens, UniProt Q08881)
# T16 construct: purchased DiscoveRx Corporation (KinomeScan)
# T16 sequence (Q08881 whole entry): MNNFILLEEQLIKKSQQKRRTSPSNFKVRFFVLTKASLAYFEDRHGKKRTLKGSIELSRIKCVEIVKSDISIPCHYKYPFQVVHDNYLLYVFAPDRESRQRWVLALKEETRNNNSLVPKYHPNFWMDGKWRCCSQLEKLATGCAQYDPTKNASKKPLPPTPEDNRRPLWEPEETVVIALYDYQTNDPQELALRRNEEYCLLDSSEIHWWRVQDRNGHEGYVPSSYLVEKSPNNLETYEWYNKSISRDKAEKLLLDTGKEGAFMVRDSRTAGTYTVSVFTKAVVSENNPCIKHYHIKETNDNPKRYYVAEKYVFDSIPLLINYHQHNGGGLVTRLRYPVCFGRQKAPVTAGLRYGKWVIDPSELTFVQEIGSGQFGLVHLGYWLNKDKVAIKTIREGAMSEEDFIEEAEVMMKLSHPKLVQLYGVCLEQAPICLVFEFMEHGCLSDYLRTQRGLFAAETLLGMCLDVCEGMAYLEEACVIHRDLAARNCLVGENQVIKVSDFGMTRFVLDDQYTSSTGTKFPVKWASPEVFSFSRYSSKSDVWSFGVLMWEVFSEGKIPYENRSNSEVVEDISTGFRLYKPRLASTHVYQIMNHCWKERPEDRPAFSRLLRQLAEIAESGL
# Summary of the method: as §1
# [1] = molecular target: T17, JAK1(JH2domain-pseudokinase) (Homo sapiens, UniProt P23458)
# T17 construct: JAK1(JH2domain-; purchased DiscoveRx Corporation (KinomeScan)
# Summary of the method: as §1
# MST4 = molecular target: T18, MST4 (Homo sapiens, UniProt Q9P289)
# T18 construct: purchased DiscoveRx Corporation (KinomeScan)
# Summary of the method: as §1
# MYLK = molecular target: T19, MYLK (Homo sapiens, UniProt Q15746)
# T19 construct: purchased DiscoveRx Corporation (KinomeScan)
# Summary of the method: as §1
# MYLK2 = molecular target: T20, MYLK2 (Homo sapiens, UniProt Q9H1R3)
# T20 construct: purchased DiscoveRx Corporation (KinomeScan)
# Summary of the method: as §1
# NEK6 = molecular target: T21, NEK6 (Homo sapiens, UniProt Q9HC98)
# T21 construct: purchased DiscoveRx Corporation (KinomeScan panel)
# Summary of the method: as §1
# P38-beta = molecular target: T22, P38-beta (Homo sapiens, UniProt Q15759)
# T22 construct: purchased DiscoveRx Corporation (KinomeScan panel)
# T22 sequence (Q15759 whole entry): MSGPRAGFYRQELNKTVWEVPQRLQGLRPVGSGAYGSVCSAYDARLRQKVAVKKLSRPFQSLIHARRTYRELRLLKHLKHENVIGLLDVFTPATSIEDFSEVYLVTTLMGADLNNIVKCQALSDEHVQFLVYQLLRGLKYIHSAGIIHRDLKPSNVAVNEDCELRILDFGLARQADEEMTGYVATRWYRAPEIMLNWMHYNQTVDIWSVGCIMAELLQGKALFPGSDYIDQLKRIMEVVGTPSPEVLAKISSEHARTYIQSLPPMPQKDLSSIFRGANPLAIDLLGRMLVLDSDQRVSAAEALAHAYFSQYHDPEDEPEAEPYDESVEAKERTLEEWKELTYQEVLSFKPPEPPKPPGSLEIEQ
# Summary of the method: as §1
# PIK3C2B = molecular target: T23, PIK3C2B (Homo sapiens, UniProt O00750)
# T23 construct: purchased DiscoveRx Corporation (KinomeScan)
# Summary of the method: as §1
# PIM3 = molecular target: T24, PIM3 (Homo sapiens, UniProt Q86V86)
# T24 construct: purchased DiscoveRx Corporation (KinomeScan)
# Summary of the method: as §1
# PKA7 = molecular target: T25, PKA7 (Homo sapiens, UniProt Q9P286)
# T25 construct: purchased DiscoveRx Corporation (KinomeScan panel)
# Summary of the method: as §1
# PKN1 = molecular target: T26, PKN1 (Homo sapiens, UniProt Q16512)
# T26 construct: purchased DiscoveRx Corporation (KinomeScan)
# Summary of the method: as §1
# ROCK1 = molecular target: T27, ROCK1 (Homo sapiens, UniProt Q13464)
# T27 construct: purchased DiscoveRx Corporation
# Summary of the method: as §1
# [2] = molecular target: T28, RSK3(Kin.Dom.1-N-terminal) (Homo sapiens, UniProt Q15349)
# T28 construct: Kin.Dom.1; purchased DiscoveRx Corporation (KinomeScan)
# Summary of the method: as §1
# SNRK = molecular target: T29, SNRK (Homo sapiens, UniProt Q9NRH2)
# T29 construct: purchased DiscoveRx Corporation (KinomeScan)
# Summary of the method: as §1
# TEC = molecular target: T30, TEC (Homo sapiens, UniProt P42680)
# T30 construct: purchased DiscoveRx Corporation (KinomeScan)
# Summary of the method: as §1
# TNNI3K = molecular target: T31, TNNI3K (Homo sapiens, UniProt Q59H18)
# T31 construct: purchased DiscoveRx Corporation (KinomeScan)
# T31 sequence (Q59H18 whole entry): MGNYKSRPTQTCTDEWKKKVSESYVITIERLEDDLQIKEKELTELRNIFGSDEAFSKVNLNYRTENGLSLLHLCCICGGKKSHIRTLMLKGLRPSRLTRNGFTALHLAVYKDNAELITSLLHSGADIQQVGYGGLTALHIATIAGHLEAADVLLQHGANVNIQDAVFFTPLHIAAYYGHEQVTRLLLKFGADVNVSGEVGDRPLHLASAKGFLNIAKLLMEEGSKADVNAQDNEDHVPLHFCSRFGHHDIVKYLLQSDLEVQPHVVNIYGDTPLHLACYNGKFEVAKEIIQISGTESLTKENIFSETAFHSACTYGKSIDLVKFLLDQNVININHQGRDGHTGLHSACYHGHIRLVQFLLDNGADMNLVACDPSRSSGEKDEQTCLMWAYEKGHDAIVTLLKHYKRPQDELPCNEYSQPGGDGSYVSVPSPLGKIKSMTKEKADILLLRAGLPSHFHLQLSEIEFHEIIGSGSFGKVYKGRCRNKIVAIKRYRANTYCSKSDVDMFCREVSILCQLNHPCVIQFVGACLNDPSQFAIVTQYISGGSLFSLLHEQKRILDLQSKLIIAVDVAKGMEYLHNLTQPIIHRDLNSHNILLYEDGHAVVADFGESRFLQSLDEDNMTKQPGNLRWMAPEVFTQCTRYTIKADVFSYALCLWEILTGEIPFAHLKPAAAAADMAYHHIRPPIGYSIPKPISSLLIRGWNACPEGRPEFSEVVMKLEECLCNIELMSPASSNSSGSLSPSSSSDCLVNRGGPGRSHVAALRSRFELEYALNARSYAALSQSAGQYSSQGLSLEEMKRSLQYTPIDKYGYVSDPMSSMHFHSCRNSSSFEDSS
# Summary of the method: as §1
# TSSK1B = molecular target: T32, TSSK1B (Homo sapiens, UniProt Q9BXA7)
# T32 construct: purchased DiscoveRx Corporation (KinomeScan)
# Summary of the method: as §1
# TTK = molecular target: T33, TTK (Homo sapiens, UniProt P33981)
# T33 construct: purchased DiscoveRx Corporation (KinomeScan)
# T33 sequence (P33981 whole entry): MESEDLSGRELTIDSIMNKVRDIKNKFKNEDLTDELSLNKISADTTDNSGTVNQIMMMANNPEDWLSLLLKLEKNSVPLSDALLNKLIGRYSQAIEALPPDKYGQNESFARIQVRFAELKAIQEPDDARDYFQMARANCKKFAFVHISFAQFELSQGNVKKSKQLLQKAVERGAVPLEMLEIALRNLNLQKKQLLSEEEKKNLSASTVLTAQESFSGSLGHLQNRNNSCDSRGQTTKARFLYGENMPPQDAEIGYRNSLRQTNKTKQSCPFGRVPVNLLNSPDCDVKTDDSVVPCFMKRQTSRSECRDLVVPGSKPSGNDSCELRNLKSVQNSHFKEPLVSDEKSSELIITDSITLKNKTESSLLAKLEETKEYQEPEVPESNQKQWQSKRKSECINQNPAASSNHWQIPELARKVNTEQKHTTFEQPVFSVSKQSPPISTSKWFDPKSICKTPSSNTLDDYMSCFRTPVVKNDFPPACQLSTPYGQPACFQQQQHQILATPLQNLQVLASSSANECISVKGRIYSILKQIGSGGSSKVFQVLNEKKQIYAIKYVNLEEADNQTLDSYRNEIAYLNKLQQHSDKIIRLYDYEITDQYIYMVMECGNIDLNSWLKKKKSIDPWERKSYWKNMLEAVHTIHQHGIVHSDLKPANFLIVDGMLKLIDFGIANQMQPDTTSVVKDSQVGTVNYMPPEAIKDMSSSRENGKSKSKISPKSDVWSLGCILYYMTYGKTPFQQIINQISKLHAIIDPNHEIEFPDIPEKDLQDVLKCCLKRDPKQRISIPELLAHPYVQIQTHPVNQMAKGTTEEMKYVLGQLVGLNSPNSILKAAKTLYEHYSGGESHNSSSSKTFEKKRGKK
# Summary of the method: as §1
# TYRO3 = molecular target: T34, TYRO3 (Homo sapiens, UniProt Q06418)
# T34 construct: purchased DiscoveRx Corporation (KinomeScan service)
# Summary of the method: as §1
# YANK1 = molecular target: T35, YANK1 (Homo sapiens, UniProt Q8WU08)
# T35 construct: purchased DiscoveRx Corporation (KinomeScan service)
# Summary of the method: as §1
structure (smiles),measurement,setting,value
"CCOP(=O)(CN1CCC(COc2cc3nccc(Oc4ccc(NC(=O)C5(C(=O)Nc6ccc(F)cc6)CC5)cc4F)c3cc2OC)CC1)OCC [Example 10, N1-[4-[[7-[[1-(diethoxyphosphorylmethyl)-4-piperidinyl]methoxyl]-6-methoxyl-4-quinolyl]oxyl]-3-fluorophenyl]-N1′-(4-fluorophenyl)cyclopropane-1,1-dicarboxamide]",% Ctrl@1000 nM,AURKA,100 % Ctrl
same,% Ctrl@1000 nM,BMPR1A,100 % Ctrl
same,% Ctrl@1000 nM,BRAF,100 % Ctrl
same,% Ctrl@1000 nM,CHEK2,35 % Ctrl
same,% Ctrl@1000 nM,DLK,52 % Ctrl
same,% Ctrl@1000 nM,EGFR,100 % Ctrl
same,% Ctrl@1000 nM,"EGFR(L747-T751del,Sins)",72 % Ctrl
same,% Ctrl@1000 nM,"EGFR(L858R,T790M)",100 % Ctrl
same,% Ctrl@1000 nM,EIF2AK1,100 % Ctrl
same,% Ctrl@1000 nM,EPHA4,4 % Ctrl
same,% Ctrl@1000 nM,EPHB3,36 % Ctrl
same,% Ctrl@1000 nM,EPHB4,12 % Ctrl
same,% Ctrl@1000 nM,FGFR1,100 % Ctrl
same,% Ctrl@1000 nM,HIPK4,0.15 % Ctrl
same,% Ctrl@1000 nM,IKK-epsilon,94 % Ctrl
same,% Ctrl@1000 nM,ITK,34 % Ctrl
same,% Ctrl@1000 nM,[1],100 % Ctrl
same,% Ctrl@1000 nM,MST4,80 % Ctrl
same,% Ctrl@1000 nM,MYLK,100 % Ctrl
same,% Ctrl@1000 nM,MYLK2,100 % Ctrl
same,% Ctrl@1000 nM,NEK6,100 % Ctrl
same,% Ctrl@1000 nM,P38-beta,87 % Ctrl
same,% Ctrl@1000 nM,PIK3C2B,100 % Ctrl
same,% Ctrl@1000 nM,PIM3,67 % Ctrl
same,% Ctrl@1000 nM,PKA7,100 % Ctrl
same,% Ctrl@1000 nM,PKN1,100 % Ctrl
same,% Ctrl@1000 nM,ROCK1,100 % Ctrl
same,% Ctrl@1000 nM,[2],100 % Ctrl
same,% Ctrl@1000 nM,SNRK,100 % Ctrl
same,% Ctrl@1000 nM,TEC,100 % Ctrl
same,% Ctrl@1000 nM,TNNI3K,94 % Ctrl
same,% Ctrl@1000 nM,TSSK1B,100 % Ctrl
same,% Ctrl@1000 nM,TTK,84 % Ctrl
same,% Ctrl@1000 nM,TYRO3,41 % Ctrl
same,% Ctrl@1000 nM,YANK1,100 % Ctrl
